Experimental data taken from patent US20070208063A1, “Imidazole-based compounds, compositions comprising them and methods of their use” (priority 2006, published 2007).

Legend:
circulating lymphocytes = assay: Effects on lymphocytes in mice: whole blood counts (CBC); format: in vivo, mice (F1 hybrids of 129/B6 strain)
Procedure: Unless otherwise indicated, the term “circulating lymphocyte reduction factor” or “CLRF” means the decrease in the number of circulating lymphocytes in mice caused by oral administration of a single dose of a compound at 100 mg/kg, as determined by the method described in the Examples, below. Compounds were administered by oral gavage or in drinking water. For oral dosing experiments, compounds were resuspended from crystals at 10 mg/ml in vehicle (e.g., water). Mice (F1 hybrids of 129/B6 strain) were gavaged with a single 100 mg/kg dose of compound (equivalent to 100 mpk of the free base for each compound) or a vehicle-only control, and returned to their cages. Mice were anesthetized using isofluorane eighteen hours after dosing and tissues were collected for analysis as described below. For drinking water studies, compounds were dissolved at 50 mg/L in acidified water (pH=2.8) containing 10 g/L glucose. The mice were allowed free access to compound-containing water (or glucose solution as a control) for 72 hours. At the end of 72 hours, tissues were collected for analysis. CBC measurements were obtained as follows. Mice were anesthetized with isofluorane and blood was collected from the retroorbital plexus into EDTA blood collection tubes (Capiject-MQK, Terumo Medical Corp., Elkton, Md.). […]

[1] = test system: lymphocyte egress from the thymus; assay: Effects on lymphocytes in mice: FACS of thymus T cells; format: in vivo, mice (F1 hybrids of 129/B6 strain); conditions: administered in drinking water; FIGS. 1-3
Procedure: Compounds were administered by oral gavage or in drinking water. For oral dosing experiments, compounds were resuspended from crystals at 10 mg/ml in vehicle (e.g., water). Mice (F1 hybrids of 129/B6 strain) were gavaged with a single 100 mg/kg dose of compound (equivalent to 100 mpk of the free base for each compound) or a vehicle-only control, and returned to their cages. Mice were anesthetized using isofluorane eighteen hours after dosing and tissues were collected for analysis as described below. For drinking water studies, compounds were dissolved at 50 mg/L in acidified water (pH=2.8) containing 10 g/L glucose. The mice were allowed free access to compound-containing water (or glucose solution as a control) for 72 hours. At the end of 72 hours, tissues were collected for analysis. Flow cytometry (FACS) measurements were obtained as follows. Twenty five μl whole blood was lysed by hyoptonic shock, washed once in 2 ml FACS wash buffer (FWB: PBS/0.1% BSA/0.1% NaN3/2 mM EDTA) and stained for 30 minutes at 4° C. in the dark with a combination of fluorochrome-conjugated antibodies diluted in 50 μl FWB. After staining, the cells were washed once with 2 ml FWB and resuspended in 300 μl FWB for acquisition. […] Samples were analyzed using a FACSCalibur flow cytometer and CellQuest Pro software (Becton Dickinson Immunocytometry Systems, San Jose, Calif.). […]

[2] = test system: lymphocytes / mature T cells in the thymus; conditions: administration to rats and mice; cited from earlier work
immunological effects = conditions: studies in humans; Thuvander 1994, Houben 1992; cited from earlier work
S1P lyase = target: T1, S1P lyase (Mus musculus, UniProt Q8R0X7); conditions: when administered to mice; Schwab et al. 2005; cited from earlier work
T1 construct: host or cells: mice (in vivo)
T1 sequence (Q8R0X7 1-568): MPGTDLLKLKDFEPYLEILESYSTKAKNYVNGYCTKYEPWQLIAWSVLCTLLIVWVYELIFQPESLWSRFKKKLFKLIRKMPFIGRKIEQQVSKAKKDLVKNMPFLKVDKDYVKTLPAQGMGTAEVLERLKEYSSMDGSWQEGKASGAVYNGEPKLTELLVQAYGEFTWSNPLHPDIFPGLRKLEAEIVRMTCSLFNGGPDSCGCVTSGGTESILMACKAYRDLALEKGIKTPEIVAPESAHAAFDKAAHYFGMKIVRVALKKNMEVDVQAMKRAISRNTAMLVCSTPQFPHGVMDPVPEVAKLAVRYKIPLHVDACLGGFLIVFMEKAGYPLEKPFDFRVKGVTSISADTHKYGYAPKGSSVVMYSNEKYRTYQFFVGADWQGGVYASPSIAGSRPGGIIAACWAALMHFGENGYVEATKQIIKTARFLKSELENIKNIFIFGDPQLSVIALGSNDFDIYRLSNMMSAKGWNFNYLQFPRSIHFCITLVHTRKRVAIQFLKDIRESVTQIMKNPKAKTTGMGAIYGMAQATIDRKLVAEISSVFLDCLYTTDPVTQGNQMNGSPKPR

Structure (SMILES) | effect on circulating lymphocytes (circulating lymphocytes) | effect on lymphocyte egress from the thymus [1] | lymphopenia [2] | mature T cells in the thymus [2] | immunological effects (immunological effects) | S1P lyase activity (S1P lyase)
CC(=O)c1nc(C)c([C@@H](O)[C@H](O)[C@H](O)CO)s1 [Compound 2, 1-(4-methyl-5-((1S,2R,3R)-1,2,3,4-tetrahydroxybutyl)thiazol-2-yl)ethanone] | little or no effect on circulating lymphocytes |  |  |  |  | 
CC(=O)c1nc(C(O)C(O)C(O)CO)c[nH]1 (stereo not shown) [THI, 2-acetyl-4-tetrahydroxybutylimidazole] | capable of reducing circulating lymphocytes in mice | diminished lymphocyte egress from the thymus | induces lymphopenia | causes the accumulation of mature T cells in the thymus | no immunological effects | inhibits S1P lyase activity
